By DC50 is commonly meant the midpoint of the concentration-degradation curve.

SMILES strings stand for the structures. A value given as a limit tells only on which side of the number the result lay.

For one test, the target named is T1, PIP4K2C (Homo sapiens, UniProt Q8TBX8).
T1 sequence (Q8TBX8 1-421): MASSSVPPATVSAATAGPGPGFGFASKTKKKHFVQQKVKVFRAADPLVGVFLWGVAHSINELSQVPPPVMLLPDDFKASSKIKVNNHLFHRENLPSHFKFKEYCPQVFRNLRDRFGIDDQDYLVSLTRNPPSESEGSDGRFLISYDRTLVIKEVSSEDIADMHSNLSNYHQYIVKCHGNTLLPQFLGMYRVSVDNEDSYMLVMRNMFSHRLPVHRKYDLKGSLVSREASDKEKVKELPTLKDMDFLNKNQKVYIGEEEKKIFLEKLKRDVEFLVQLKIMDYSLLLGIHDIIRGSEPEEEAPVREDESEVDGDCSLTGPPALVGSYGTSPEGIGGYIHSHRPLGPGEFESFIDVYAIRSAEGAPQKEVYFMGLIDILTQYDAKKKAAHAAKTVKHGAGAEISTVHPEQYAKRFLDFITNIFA
The experiment in a line: HiBiT PIP4K2C degradation assay in MOLT-4 cells (endogenous PIP4K2C C-terminally tagged with HiBiT). Details: untagged in primary human PBMCs and monocyte-derived dendritic cells. As to conditions: 6 hours of incubation time, rather than 24 hours; MOLT-4, top concentration 10 micromolar; read-out: HiBIT-degradation MOLT4 PIP4k2C DC50 (6 hours, marked *). It counts as cell-based. The gist of the method:
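MOLT-4 cells with endogenous PIP4K2C C-terminally HiBiT-tagged by CRISPR were treated with a 10-point, 3-fold dilution series from 10 micromolar, in duplicate, for 24 h or 6 h at 37 C. Remaining tagged protein read by HiBiT lytic luminescence; DC50 from Hill-equation fit.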
A general note: With HiBiT, luminescence reflects the tagged protein that the partner subunit can reach.
With `O=C1CCC(Nc2ccc(C3CCN([C@H]4CC[C@H](C(=O)N[C@H]5CC[C@H](Nc6ncc(F)c(-c7cccc(N8CCCOC8=O)c7)n6)CC5)CC4)CC3)c(F)c2)C(=O)N1` (stereo partly drawn) [Compound 576, trans-(1r,4R)-4-(4-(4-((2,6-dioxopiperidin-3-yl)amino)-2-fluorophenyl)piperidin-1-yl)-N-((1r,4R)-4-((5-fluoro-4-(3-(2-oxo-1,3-oxazinan-3-yl)phenyl)pyrimidin-2-yl)amino)cyclohexyl)cyclohexane-1-carboxamide], the DC50 is less than 500 nM.

For the molecule `O=C1CC[C@@H](Nc2ccc(N3CCC(N4CCC(C(=O)N[C@H]5CC[C@H](Nc6ncc(F)c(-c7cccc(-c8ccc[nH]c8=O)c7)n6)CC5)CC4)CC3)c(F)c2)C(=O)N1` [Compound 577, trans-1′-(4-(((R)-2,6-dioxopiperidin-3-yl)amino)-2-fluorophenyl)-N-((1r,4r)-4-((5-fluoro-4-(3-(2-oxo-1,2-dihydropyridin-3-yl)phenyl)pyrimidin-2-yl)amino)cyclohexyl)-[1,4′-bipiperidine]-4-carboxamide], the DC50 is more than 5000 nM.

`O=C1CCC(Nc2ccc(C3CCN(CC4(O)CCN(C(=O)[C@H]5CC[C@H](Nc6ncc(F)c(-c7cccc(N8CCOCC8=O)c7)n6)CC5)CC4)CC3)c(F)c2)C(=O)N1` (stereo partly drawn) [Compound 578, trans-3-((3-fluoro-4-(1-((1-(4-((5-fluoro-4-(3-(3-oxomorpholino)phenyl)pyrimidin-2-yl)amino)cyclohexane-1-carbonyl)-4-hydroxypiperidin-4-yl)methyl)piperidin-4-yl)phenyl)amino)piperidine-2,6-dione]: the half-maximal degradation concentration (DC50) is less than 500 nM.

Consider `O=C1CCC(Nc2ccc(C3CCN(CC4(O)CCN(C(=O)[C@H]5CC[C@H](Nc6ncc(F)c(-c7cccc(N8CCCCC8=O)c7)n6)CC5)CC4)CC3)c(F)c2)C(=O)N1` (stereo partly drawn) [Compound 579, 3-((3-fluoro-4-(1-((1-(trans-4-((5-fluoro-4-(3-(2-oxopiperidin-1-yl)phenyl)pyrimidin-2-yl)amino)cyclohexane-1-carbonyl)-4-hydroxypiperidin-4-yl)methyl)piperidin-4-yl)phenyl)amino)piperidine-2,6-dione], for which the 50% degradation concentration (DC50) is less than 500 nM.

In the case of `O=C1CCC(Nc2ccc(C3CCN(CC4(O)CCN(C(=O)[C@H]5CC[C@H](Nc6ncc(F)c(-c7cccc(N8CCCOC8=O)c7)n6)CC5)CC4)CC3)c(F)c2)C(=O)N1` (stereo partly drawn) [Compound 580, trans-3-((3-fluoro-4-(1-((1-(4-((5-fluoro-4-(3-(2-oxo-1,3-oxazinan-3-yl)phenyl)pyrimidin-2-yl)amino)cyclohexane-1-carbonyl)-4-hydroxypiperidin-4-yl)methyl)piperidin-4-yl)phenyl)amino)piperidine-2,6-dione], the DC50 is less than 500 nM.

Turning to `O=C1CCC(Nc2ccc(C3CCN(CC4(O)CCN(C(=O)[C@H]5CC[C@H](Nc6ncc(F)c(-c7cccc(-c8ccc[nH]c8=O)c7)n6)CC5)CC4)CC3)c(F)c2)C(=O)N1` (stereo partly drawn) [Compound 581, 3-((3-fluoro-4-(1-((1-(trans-4-((5-fluoro-4-(3-(2-oxo-1,2-dihydropyridin-3-yl)phenyl)pyrimidin-2-yl)amino)cyclohexane-1-carbonyl)-4-hydroxypiperidin-4-yl)methyl)piperidin-4-yl)phenyl)amino)piperidine-2,6-dione], the DC50 was less than 500 nM.

Regarding `O=C1CCC(Nc2ccc(N3CCN(CC4(O)CCN(C(=O)[C@H]5CC[C@H](Nc6ncc(F)c(-c7cccc(N8CCCCC8=O)c7)n6)CC5)CC4)CC3)c(F)c2)C(=O)N1` (stereo partly drawn) [Compound 582, trans-3-((3-fluoro-4-(4-((1-(4-((5-fluoro-4-(3-(2-oxopiperidin-1-yl)phenyl)pyrimidin-2-yl)amino)cyclohexane-1-carbonyl)-4-hydroxypiperidin-4-yl)methyl)piperazin-1-yl)phenyl)amino)piperidine-2,6-dione], the half-maximal degradation concentration (DC50) was less than 500 nM.

Turning to `O=C1CCC(Nc2ccc(N3CCN(CC4(O)CCN(C(=O)[C@H]5CC[C@H](Nc6ncc(F)c(-c7cccc(N8CCCOC8=O)c7)n6)CC5)CC4)CC3)c(F)c2)C(=O)N1` (stereo partly drawn) [Compound 583, trans-3-((3-fluoro-4-(4-((1-(4-((5-fluoro-4-(3-(2-oxo-1,3-oxazinan-3-yl)phenyl)pyrimidin-2-yl)amino)cyclohexane-1-carbonyl)-4-hydroxypiperidin-4-yl)methyl)piperazin-1-yl)phenyl)amino)piperidine-2,6-dione], the DC50 was less than 500 nM.

For the molecule `O=C1CCC(Nc2ccc(N3CCN(CC4(O)CCN(C(=O)[C@H]5CC[C@H](Nc6ncc(F)c(-c7cccc(-c8ccc[nH]c8=O)c7)n6)CC5)CC4)CC3)c(F)c2)C(=O)N1` (stereo partly drawn) [Compound 584, trans-3-((3-fluoro-4-(4-((1-(4-((5-fluoro-4-(3-(2-oxo-1,2-dihydropyridin-3-yl)phenyl)pyrimidin-2-yl)amino)cyclohexane-1-carbonyl)-4-hydroxypiperidin-4-yl)methyl)piperazin-1-yl)phenyl)amino)piperidine-2,6-dione], the DC50 is more than 5000 nM.

Take `O=C1CCC(Nc2ccc(N3CCC(N4CCC(C(=O)N[C@H]5CC[C@H](Nc6ncc(F)c(-c7cccc(N8CCOCC8=O)c7)n6)CC5)CC4)CC3)c(F)c2)C(=O)N1` (stereo partly drawn) [Compound 585, trans-1′-(4-((2,6-dioxopiperidin-3-yl)amino)-2-fluorophenyl)-N-(4-((5-fluoro-4-(3-(3-oxomorpholino)phenyl)pyrimidin-2-yl)amino)cyclohexyl)-[1,4′-bipiperidine]-4-carboxamide]: the half-maximal degradation concentration (DC50) was less than 500 nM.

Turning to `O=C1CCC(Nc2ccc(N3CCC(N4CCC(C(=O)N[C@H]5CC[C@H](Nc6ncc(F)c(-c7cccc(N8CCCCC8=O)c7)n6)CC5)CC4)CC3)c(F)c2)C(=O)N1` (stereo partly drawn) [Compound 587, 1′-(4-((2,6-dioxopiperidin-3-yl)amino)-2-fluorophenyl)-N-(trans-4-((5-fluoro-4-(3-(2-oxopiperidin-1-yl)phenyl)pyrimidin-2-yl)amino)cyclohexyl)-[1,4′-bipiperidine]-4-carboxamide], the 50% degradation concentration (DC50) is less than 500 nM.

`O=C1CCC(Nc2ccc(N3CCN(CC4(O)CCN(C(=O)[C@H]5CC[C@H](Nc6ncc(F)c(-c7cccc(N8CCOCC8=O)c7)n6)CC5)CC4)CC3)c(F)c2)C(=O)N1` (some centres unmarked) [Compound 588]: the 50% degradation concentration (DC50) was less than 500 nM.

On to `O=C1CCC(Nc2ccc(C3CCN(C[C@H]4CC[C@H](CNC(=O)[C@H]5CC[C@H](Nc6ncc(F)c(-c7cccc(N8CCOCC8=O)c7)n6)CC5)CC4)CC3)c(F)c2)C(=O)N1` (stereo partly drawn) [Compound 589, trans-(1r,4R)—N-(((1r,4R)-4-((4-(4-((2,6-dioxopiperidin-3-yl)amino)-2-fluorophenyl)piperidin-1-yl)methyl)cyclohexyl)methyl)-4-((5-fluoro-4-(3-(3-oxomorpholino)phenyl)pyrimidin-2-yl)amino)cyclohexane-1-carboxamide], for which the half-maximal degradation concentration (DC50) is less than 500 nM.

`O=C1CCC(Nc2ccc(N3CCN(C[C@H]4CC[C@H](CNC(=O)[C@H]5CC[C@H](Nc6ncc(F)c(-c7cccc(N8CCCCC8=O)c7)n6)CC5)CC4)CC3)c(F)c2)C(=O)N1` (stereo partly drawn) [Compound 590, trans-(1r,4R)—N-(((1r,4R)-4-((4-(4-((2,6-dioxopiperidin-3-yl)amino)-2-fluorophenyl)piperazin-1-yl)methyl)cyclohexyl)methyl)-4-((5-fluoro-4-(3-(2-oxopiperidin-1-yl)phenyl)pyrimidin-2-yl)amino)cyclohexane-1-carboxamide]: the DC50 was less than 500 nM.

Regarding `O=C1CCC(Nc2ccc(N3CCN(C[C@H]4CC[C@H](CNC(=O)[C@H]5CC[C@H](Nc6ncc(F)c(-c7cccc(N8CCCOC8=O)c7)n6)CC5)CC4)CC3)c(F)c2)C(=O)N1` (stereo partly drawn) [Compound 591, trans-(1r,4R)—N-(((1r,4R)-4-((4-(4-((2,6-dioxopiperidin-3-yl)amino)-2-fluorophenyl)piperazin-1-yl)methyl)cyclohexyl)methyl)-4-((5-fluoro-4-(3-(2-oxo-1,3-oxazinan-3-yl)phenyl)pyrimidin-2-yl)amino)cyclohexane-1-carboxamide], the half-maximal degradation concentration (DC50) is less than 500 nM.

Turning to `O=C1CCC(Nc2ccc(N3CCC(N4CCC(C(=O)N[C@H]5CC[C@H](Nc6ncc(F)c(-c7cccc(N8CCOC8=O)c7)n6)CC5)CC4)CC3)c(F)c2)C(=O)N1` (stereo partly drawn) [Compound 596, trans-1′-(4-((2,6-dioxopiperidin-3-yl)amino)-2-fluorophenyl)-N-(4-((5-fluoro-4-(3-(2-oxooxazolidin-3-yl)phenyl)pyrimidin-2-yl)amino)cyclohexyl)-[1,4′-bipiperidine]-4-carboxamide], the DC50 is less than 500 nM.

The test is the same for the next values; noted with them: read-out: HiBIT-degradation MOLT4 PIP4k2C DC50 (6 hours, marked *); 6 hours of incubation time, rather than 24 hours; MOLT-4, top concentration 10 micromolar.
Consider `O=C1CCC(Nc2ccc(N3CCN(C[C@H]4CC[C@H](CNC(=O)[C@H]5CC[C@H](Nc6ncc(F)c(-c7cccc(N8CCOCC8=O)c7)n6)CC5)CC4)CC3)c(F)c2)C(=O)N1` (stereo partly drawn) [Compound 586, trans-(1r,4R)—N-(((1r,4R)-4-((4-(4-((2,6-dioxopiperidin-3-yl)amino)-2-fluorophenyl)piperazin-1-yl)methyl)cyclohexyl)methyl)-4-((5-fluoro-4-(3-(3-oxomorpholino)phenyl)pyrimidin-2-yl)amino)cyclohexane-1-carboxamide], for which the 50% degradation concentration (DC50) is less than 500 nM.

These data come from patent US20260355196A1, “INHIBITORS AND DEGRADERS OF PIP4K PROTEIN” (Larkspur Biosciences, Inc., priority 2023, published 2026).
